{
  "source": "patent US20190076440A1",
  "about": "“TREATMENT OF TISSUE DISORDERS” (priority 2016, published 2019)",
  "test_system": "MCDS mice (homozygous N617K collagen X mutation)",
  "test": "Western blots of rib growth plate cartilage of MCDS mice",
  "assay_type": "in vivo, mouse",
  "conditions": "1 week",
  "method": "FIG. 2 illustrates the effect of carbamazepine on the growth plate pathology associated with MCDS. 3 week old MCDS mice were treated with CBZ for a period of one week. Untreated MCDS mice and mice wild-type for collagen X (WT) were used as controls. (a) H+E staining of the tibial growth plate at 4 weeks of age. (b) Immunohistochemistry for Grp78 and (c) Immunohistochemistry for collagen X. Yellow bars show the hypertrophic zone. Scale bars equal to 100 μM in all cases. (d) is a table showing growth plate zone measurements at 4 weeks of age. Mean±SEM. Number of animals shown in brackets. Significance between mutant untreated mice and treated mice shown by the asterisk. (e) Western blots of rib growth plate cartilage at 4 weeks of age for Grp78, ATF4, p62/SQSTM1 and LC3-II alongside the associated coomassie blue stain used as a loading control. Quantification of these blots against the coomassie protein level is shown in supplementary S4. (f) X-ray images of the pelvis at 6 weeks of age. The angle between the lines was measured in a minimum of 5 animals and a graph showing the mean±SEM is shown in (g). Graphs showing the percentage increase in growth of the (h) tibia and (i) femur from 3 weeks of age.\nFIG. 8 illustrates the quantification of western blots on mouse rib growth plate tissue MCDS mice were treated with CBZ for a period of one week. Untreated MCDS mice and mice wild-type for collagen X (WT) were used as controls. Rib cages were dissected, treated with collagenase for 2 hours and cartilage growth plates were further dissected from each individual rib. Growth plates were pooled from 3 individual mice and protein extracted in SDS-PAGE buffer. 20 μg was used in SDS-PAGE and western blotting. Quantification of (a) BiP, (b) ATF4, (c) p62 and (d) LC3B protein levels against the coomassie protein level. Mean±SEM of three independent experiments;\nThe generation and genotyping of the Col10a1 p.N617K mouse line has been described previously (Rajpar et al 2009). Mice homozygous for the MCDS-causing N617K collagen X mutation were x-rayed at 3 weeks of age and treated with carbamazepine (250 mg/kg/day) for up to 21 days via a subcutaneous implantation of a slow-release pellet (Innovative research of America USA C-113) whilst the mouse was under anaesthetic. […]\nRib-cages from 4 week old mice were dissected and placed in collagenase medium for 1-2 hours, after which the cartilage growth plates were collected using a dissecting microscope. […] The supernatant was collected and analysed by SDS-PAGE.\nThe protein concentration of samples was determined using a Pierce bicinchoninic acid (BCA) protein assay with a bovine serum albumin standard curve. […]",
  "data": [
    {"compound": "NC(=O)N1c2ccccc2C=Cc2ccccc21", "note": "[CBZ, Carbamazepine]", "values": [
      {"measurement": "concentration of the autophagy substrate p62 in growth plate extracts", "setting": "MCDS mice", "value": "decrease"},
      {"measurement": "LC3B-II protein in growth plate extracts", "setting": "MCDS mice, autophagy marker", "value": "increase"},
      {"measurement": "ATF4 level on western blots of growth plate extracts", "setting": "treated vs untreated MCDS mice", "value": "significantly reduced"},
      {"measurement": "BiP level on western blots of growth plate extracts", "setting": "treated vs untreated MCDS mice", "value": "significantly reduced"}
    ]}
  ]
}
